Here are results for 27 compounds from patent US11059795B2, “Androgen receptor modulators and methods for their use” (ESSA Pharma, Inc., priority 2018, dated 2021).

One data set has as its target T1, androgen receptor (AR) (Homo sapiens, UniProt P10275, T878A).
T1 construct: LNCaP cells were transiently transfected with the PSA (6.1 kb)-luciferase reporter for 24 h; endogenous in cells; host or cells: LNCaP
T1 sequence (P10275 1-920 T878A): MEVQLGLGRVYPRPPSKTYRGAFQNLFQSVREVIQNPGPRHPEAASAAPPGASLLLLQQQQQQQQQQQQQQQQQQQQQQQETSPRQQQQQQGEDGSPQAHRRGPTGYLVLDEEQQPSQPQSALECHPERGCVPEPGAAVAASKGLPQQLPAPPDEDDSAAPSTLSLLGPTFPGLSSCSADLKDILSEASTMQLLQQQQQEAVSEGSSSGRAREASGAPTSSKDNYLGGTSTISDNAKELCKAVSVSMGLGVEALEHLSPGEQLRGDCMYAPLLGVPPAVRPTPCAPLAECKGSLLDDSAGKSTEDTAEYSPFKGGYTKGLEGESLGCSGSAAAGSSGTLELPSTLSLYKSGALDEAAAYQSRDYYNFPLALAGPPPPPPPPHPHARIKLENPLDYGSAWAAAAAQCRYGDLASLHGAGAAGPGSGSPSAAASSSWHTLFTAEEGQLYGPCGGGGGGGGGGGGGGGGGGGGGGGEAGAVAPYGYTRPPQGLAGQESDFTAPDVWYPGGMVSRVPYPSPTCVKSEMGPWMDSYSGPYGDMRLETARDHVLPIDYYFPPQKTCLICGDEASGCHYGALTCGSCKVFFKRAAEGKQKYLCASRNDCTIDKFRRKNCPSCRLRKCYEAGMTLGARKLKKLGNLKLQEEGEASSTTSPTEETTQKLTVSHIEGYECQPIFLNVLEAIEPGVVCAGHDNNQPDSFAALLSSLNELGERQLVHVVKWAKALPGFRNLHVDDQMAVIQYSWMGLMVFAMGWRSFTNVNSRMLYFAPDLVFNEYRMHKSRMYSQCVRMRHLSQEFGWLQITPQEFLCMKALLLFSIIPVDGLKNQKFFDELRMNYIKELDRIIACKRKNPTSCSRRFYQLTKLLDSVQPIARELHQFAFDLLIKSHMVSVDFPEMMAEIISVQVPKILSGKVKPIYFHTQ
Kind of data set: Androgen-induced PSA (6.1 kb)-luciferase reporter assay in LNCaP cells. Type of data set: cell-based. Conditions: LNCaP cells transfected with PSA (6.1 kb)-luciferase reporter, R1881 1 nM, 24 h; read-out: PSA-Luc IC50 Range. How it is done: The PSA (6.1 kb)-luciferase reporter contains functional AREs (androgen response elements) to which AR binds in response to androgen to induce luciferase activity.
Cells were lysed using Passive Lysis Buffer (Promega) and then collected into V-bottom 96-well tissue culture plates. Lysates were centrifuged at 4° C. for 5 minutes at 3000 rpm. To measure luminescence of LNCaP cell lysates the Firefly Luciferase Assay System (Promega) was employed, according to manufacturer's protocol. Relative luminescence units (RLU) in cell lysates were detected for 10 seconds using Promega GloMax-Multi Detection Luminometer (Promega). Values were normalized to protein content. GraphPad Prism graphing software was used to calculate IC50 values.
Comparisons between treatment and control groups were compared using Two-Way ANOVA with post-hoc Dunnett's and Tukey's tests. Differences were considered statistically significant at P values less than 0.05.

Data set [1] can be described thus: Microsomal stability assay, human liver microsomes. It counts as in vitro ADME. To be noted: pH 7.4, 1 μM compound, 0.5 mg/mL protein, 37° C., read-out: HLM +/− NADPH: Clint (μL/min/mg protein). How it is done: Microsomal stability assay is a widely used in vitro model to characterize the metabolic conversion by phase I enzymes, such as cytochrome P450 (CYP) enzymes. Since metabolism is known to be highly variable in different species, microsomal stability assay is commonly run in multiple species. Metabolic stability of testing compound can be evaluated using human, rat, mouse, or other animal liver or intestine microsomes to predict intrinsic clearance.
The assay was carried out in 96-well microtiter plates at 37° C. Reaction mixtures (25 μL) contained a final concentration of 1 μM test compound, 0.5 mg/mL liver microsomes protein, and 1 mM NADPH and/or 1 mM UDPGA (with alamethicin) in 100 mM potassium phosphate, pH 7.4 buffer with 3 mM MgCl2. The incubation was done with N=1, but duplicate incubation at each time point can be prepared if necessary. At each of the time points (for example, 0, 15, 30, and 60 minutes), 150 μL of quench solution (100% acetonitrile with 0.1% formic acid) with internal standard was transferred to each well. Besides the zero minute controls, mixtures containing the same components except the NADPH can also be prepared as the negative control. Verapamil was included as a positive control to verify assay performance. Plates were sealed, vortexed, and centrifuged at 4° C. for 15 minutes at 4000 rpm. The supernatant is transferred to fresh plates for LC/MS/MS analysis.
Summarized conditions: [Compound]=[…], [LM]=0.5 mg/mL, [NADPH]=1 mM and/or [UDPGA]=1 mM, Buffer=100 mM Potassium Phosphate, pH 7.4 with 3 mM MgCl2, Time=0, 15, 30, and 60 min, and Temperature=37° C.
All samples were analyzed on LC/MS/MS using an AB Sciex API 4000 instrument, coupled to a Shimadzu LC-20AD LC Pump system. Analytical samples were separated using a Waters Atlantis T3 dC18 reverse phase HPLC column (20 mm×2.1 mm) at a flow rate of 0.5 mL/min. The mobile phase consisted of 0.1% formic acid in water (solvent A) and 0.1% formic acid in 100% acetonitrile (solvent B).
The extent of metabolism is calculated as the disappearance of the test compound, compared to the 0-min time incubation. Initial rates are calculated for the compound concentration and used to determine half-life (t½) values and subsequently, the intrinsic clearance (Clint). Clint=(0.693)(1/t½ (min))(g of liver/kg of body weight)(mL incubation/mg of microsomal protein)(45 mg of microsomal protein/g of liver weight)
A general note: Liver microsomes are vesicles of endoplasmic reticulum, rich in cytochrome P450 enzymes.

Structures are written as SMILES.

The term IC50 denotes the concentration at which inhibition is half-maximal. `CC(C)(c1ccc(OCc2[nH]ncc2NS(C)(=O)=O)cc1)c1cc(Cl)c(OCCCl)c(Cl)c1` [Compound A40, N-[3-[[4-[1-[3,5-Dichloro-4-(2-chloroethoxy)phenyl]-1-methyl-ethyl]phenoxy]methyl]-1H-pyrazol-4-yl]methanesulfonamide]: the IC50 on androgen receptor (AR) lay in the range of 500 to 2000 nM. In addition, the microsomal CLint at 1 μM in data set [1] was 12 to 48 µL/min/mg.
For `CC(C)(c1ccc(OCc2ocnc2S(C)(=O)=O)cc1)c1cc(Cl)c(NCCCl)c(Cl)c1` [Compound A50] the same measures were 500 to 2000 nM and 12 to 48 µL/min/mg.
For `CC(C)(c1ccc(OCCCl)c(C#N)c1)c1ccc(OCc2ocnc2S(C)(=O)=O)c(C#N)c1` [Compound A63, 2-(2-chloroethoxy)-5-(2-(3-cyano-4-((4-(methylsulfonyl)oxazol-5-yl)methoxy)phenyl)propan-2-yl)benzonitrile], in that order: 500 to 2000 nM and 12 to 48 µL/min/mg.
In the case of `CC(C)(c1ccc(OC2CCc3cnc(NS(C)(=O)=O)nc32)cc1)c1cc(Cl)c(OCCCl)c(C#N)c1` (stereo not shown) [Compound A203], the IC50 at androgen receptor (AR) was 500 to 2000 nM.
As for `CSc1nnc(COc2ccc(C(C)(C)c3cc(Cl)c(OCCCCl)c(Cl)c3)cc2)o1` [Compound A17], on androgen receptor (AR), the IC50 is 500 to 2000 nM. In data set [1], the microsomal CLint at 1 μM was under 12 µL/min/mg.
For `CC(C)(c1ccc(OCc2ocnc2S(C)(=O)=O)cc1)c1cc(Cl)c(OCCC(F)(F)F)c(Cl)c1` [Compound A54, 5-((4-(2-(3,5-Dichloro-4-(3,3,3-trifluoropropoxy)phenyl)propan-2-yl)phenoxy)methyl)-4-(methylsulfonyl)oxazole] the same measures were 500 to 2000 nM and under 12 µL/min/mg.
In the case of `C[C@@](O)(c1ccc(OCc2ocnc2S(C)(=O)=O)cc1)c1cc(Cl)c(OCCCl)c(C#N)c1` [Compound A107], at androgen receptor (AR), the IC50 is over 2000 nM. Besides, the microsomal CLint at 1 μM in data set [1] was 12 to 48 µL/min/mg.
For `CC(C)(c1ccc(-c2c[nH]c(CNS(C)(=O)=O)n2)cc1)c1cc(Cl)c(OCCCCl)c(Cl)c1` [Compound A25], in that order: over 2000 nM and under 12 µL/min/mg.
For `CC(C)(c1cc(Cl)c(OCCCl)c(Cl)c1)c1ccc(OCc2ocnc2S(C)(=O)=O)c(C(N)=O)c1` [Compound A76], in that order: 500 to 2000 nM and under 12 µL/min/mg.
As for `CC(C)(c1ccc(OCc2ocnc2S(C)(=O)=O)cc1)c1cnc(NCCCl)nc1` [Compound A58], the IC50 at androgen receptor (AR) is over 2000 nM. In addition, in data set [1], the microsomal CLint at 1 μM fell in the range of 12 to 48 µL/min/mg.
Consider `CC(C)(c1ccc(-c2cc(CNS(C)(=O)=O)on2)cc1)c1cc(Cl)c(OCCCCl)c(Cl)c1` [Compound A22, N-((3-(4-(2-(3,5-dichloro-4-(3-chloropropoxy)phenyl)propan-2-yl)phenyl) Isoxazol-5-yl)methyl)methanesulfonamide], for which, on androgen receptor (AR), the IC50 is over 2000 nM. In addition, the microsomal CLint at 1 μM in data set [1] was under 12 µL/min/mg.
Regarding `CC(C)(c1ccc(OCc2nc(NS(C)(=O)=O)nc3c2CCNC3)cc1)c1cc(Cl)c(OCCCl)c(C#N)c1` [Compound A191], the IC50 on androgen receptor (AR) was 500 to 2000 nM.
On to `CC(C)(c1ccc(OCCCl)c(Cl)c1)c1ccc(OCc2ocnc2S(C)(=O)=O)c(C#N)c1` [Compound A62], for which, at androgen receptor (AR), the IC50 is over 2000 nM. Further, the microsomal CLint at 1 μM in data set [1] is under 12 µL/min/mg.
Take `CC(C)(c1ccc(OCc2noc(S(C)(=O)=O)n2)cc1)c1cc(Cl)c(OCCCl)c(C#N)c1` [Compound A151]: the IC50 on androgen receptor (AR) is 500 to 2000 nM.
On to `CC(C)(c1ccc(N2C(=O)N(N)C(C)(C)C2=O)cc1)c1cc(Cl)c(OCCCl)c(Cl)c1` [Compound B6], for which the IC50 on androgen receptor (AR) was over 2000 nM. In data set [1], the microsomal CLint at 1 μM was 12 to 48 µL/min/mg.
With `CC(C)(c1ccc(OCc2cn(S(C)(=O)=O)cn2)cc1)c1cc(Cl)c(OCCCCl)c(Cl)c1` [Compound A5, 4-((4-(2-(3,5-dichloro-4-(3-chloropropoxy)phenyl)propan-2-yl)phenoxy)methyl)-1-(methylsulfonyl)-1H-imidazole], the IC50 at androgen receptor (AR) lay in the range of 500 to 2000 nM. Besides, in data set [1], the microsomal CLint at 1 μM was under 12 µL/min/mg.
Regarding `CC(C)(c1ccc(OCc2ncncc2NS(C)(=O)=O)cc1)c1cc(Cl)c(OCCCl)c(Cl)c1` [Compound A41, N-(4-((4-(2-(3,5-Dichloro-4-(2-chloroethoxy)phenyl)propan-2-yl)phenoxy)methyl)pyrimidin-5-yl)methanesulfonamide], on androgen receptor (AR), the IC50 was over 2000 nM. In addition, the microsomal CLint at 1 μM in data set [1] is at least 48 µL/min/mg.
For `CC(C)(c1ccc(OCc2n[nH]cc2NS(=O)(=O)C(F)(F)F)cc1)c1cc(Cl)c(OCCCl)c(Cl)c1` [Compound A106], the IC50 at androgen receptor (AR) was under 500 nM. Further, in data set [1], the microsomal CLint at 1 μM was in the range of 12 to 48 µL/min/mg.
For `Cc1nc(-c2ccc(C(C)(C)c3cc(Cl)c(OCCCCl)c(Cl)c3)cc2)co1` [Compound A64], in that order: over 2000 nM and at least 48 µL/min/mg.
As to `CC(C)(c1ccc(-c2coc(CNS(C)(=O)=O)n2)cc1)c1cc(Cl)c(OCCCCl)c(Cl)c1` [Compound A21], the microsomal CLint at 1 μM in data set [1] was under 12 µL/min/mg.
For `CC(C)(c1ccc(OCc2ocnc2S(C)(=O)=O)cc1)c1cc(Cl)c(OCCN)c(Cl)c1` [Compound A53], at androgen receptor (AR), the IC50 is over 2000 nM. Moreover, the microsomal CLint at 1 μM in data set [1] is under 12 µL/min/mg.
For the compound `CCOc1c(Cl)cc(C(C)(C)c2ccc(OCc3ocnc3S(C)(=O)=O)cc2)cc1Cl` [Compound A52], the IC50 at androgen receptor (AR) is over 2000 nM. For the same compound, the microsomal CLint at 1 μM in data set [1] is under 12 µL/min/mg.
Take `COc1c(Cl)cc(C(C)(C)c2ccc(OCc3ocnc3S(C)(=O)=O)cc2)cc1Cl` [Compound A56]: the half-maximal inhibitory concentration (IC50) on androgen receptor (AR) lay in the range of 500 to 2000 nM. The microsomal CLint at 1 μM in data set [1] was under 12 µL/min/mg.
For `CC(C)(c1ccc(OCc2nnc(S(C)(=O)=O)o2)cc1)c1cc(Cl)c(OCCCCl)c(Cl)c1` [Compound A7, 2-((4-(2-(3,5-dichloro-4-(3-chloropropoxy)phenyl)propan-2-yl)phenoxy)methyl)-5-(methylsulfonyl)-1,3,4-oxadiazole], in that order: over 2000 nM and at least 48 µL/min/mg.
In the case of `CC(C)(c1ccc(OCc2nnc(O)o2)cc1)c1cc(Cl)c(OCCCCl)c(Cl)c1` [Compound A18], the IC50 at androgen receptor (AR) is over 2000 nM. Moreover, the microsomal CLint at 1 μM in data set [1] is at least 48 µL/min/mg.
Consider `CC(=O)Nc1cc(COc2ccc(C(C)(C)c3cc(Cl)c(OCCCCl)c(Cl)c3)cc2)on1` [Compound A23], for which the IC50 at androgen receptor (AR) was over 2000 nM. The microsomal CLint at 1 μM in data set [1] was 12 to 48 µL/min/mg.
Consider `CC(C)(c1ccc(OCc2ccnc(NS(C)(=O)=O)n2)cc1)c1cc(F)c(OCCCl)c(C#N)c1` [Compound A205], for which, at androgen receptor (AR), the IC50 was 500 to 2000 nM.
